# Measured values published in patent publication US6727275B2, “Pyrrolidinone derivatives” (UCB, S.A./N.V., priority 2001, dated 2004).
# pIC50: −log10 of the molar value.
# Molecular target: T1, CCR2 (Homo sapiens, UniProt P41597)
# T1 sequence (P41597 1-360 isoform P41597-2): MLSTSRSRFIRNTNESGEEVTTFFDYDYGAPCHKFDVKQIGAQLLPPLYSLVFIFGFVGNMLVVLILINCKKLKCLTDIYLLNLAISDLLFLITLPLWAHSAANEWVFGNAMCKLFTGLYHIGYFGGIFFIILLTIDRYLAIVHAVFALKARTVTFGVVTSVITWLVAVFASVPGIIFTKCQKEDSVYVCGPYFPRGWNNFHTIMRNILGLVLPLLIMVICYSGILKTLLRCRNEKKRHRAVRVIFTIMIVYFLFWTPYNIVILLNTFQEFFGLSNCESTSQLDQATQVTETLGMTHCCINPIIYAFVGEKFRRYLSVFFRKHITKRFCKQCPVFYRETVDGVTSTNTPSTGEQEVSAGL
# Test: Binding assay: inhibition of 125I-MCP-1 binding to THP-1 cells
# Set-up: CCR2 is also expressed in the human monocytic cell line THP-1; endogenous in cells; host or cells: THP-1 (human monocytic cell line), whole cells
# Conditions: not given
# Experimental: Antagonism of the CCR2 receptor is determined by a binding assay using the human monocytic cell line THP-1. Cells are suspended in assay buffer (RPMI+1% BSA+25 mM HEPES) at 3×10^6 cells/ml and an aliquot (180 μl) added to a 0.5 ml siliconized Eppendorf tube. […] After incubation for 1 hr at room temperature, the cell suspension is centrifuged through oil and the cell pellets counted to quantitate cell-bound ligand. Nonspecific (NS) binding of radioligand is determined by the addition of 100 nM cold MCP-1. Control binding is determined by the addition of buffer without compound.
row,SMILES,pIC50
1,"CCCC(CCC)C1C(C(C)=O)=C(O)C(=O)N1c1ccc(C)cc1 (racemic) [Compound 39, 4-acetyl-3-hydroxy-1-(4-methylphenyl)-5-(1-propylbutyl)-1,5-dihydro-2H-pyrrol-2-one]",≥ 5.30

# Same assay, conditions: THP-1 cells, 0.1 nM 125I-MCP-1, 1 hr at room temperature; read-out: Inhibition of 125I-MCP-1 binding to THP-1 cells, IC50
row,SMILES,pIC50
1,"CC(=O)C1=C(S)C(=O)N(c2ccc(Cl)cc2F)C1C1CCCCC1 (racemic) [Compound 169, 4-acetyl-1-(4-chloro-2-fluorophenyl)-5-cyclohexyl-3-sulfanyl-1,5-dihydro-2H-pyrrol-2-one]",≥ 5.30
2,"CC(=O)C1=C(S)C(=O)N(c2ccc(Cl)cc2)C1C1CCCCC1 (racemic) [Compound 157, 4-acetyl-1-(4-chlorophenyl)-5-cyclohexyl-3-mercapto-1,5-dihydro-2H-pyrrol-2-one]",≥ 5.30
3,"CC(=O)C1=C(O)C(=O)N(Cc2ccccc2)C1C1CCCCC1 (racemic) [Compound 7, 4-acetyl-1-benzyl-5-cyclohexyl-3-hydroxy-1,5-dihydro-2H-pyrrol-2-one]",≥ 5.30
4,"CC(=O)C1=C(O)C(=O)N(c2ccc(Cl)cc2)C1C1CC2C=CC1C2 (centres unmarked) [Compound 121, 4-acetyl-5-bicyclo[2.2.1]hept-5-en-2-yl-1-(4-chlorophenyl)-3-hydroxy-1,5-dihydro-2H-pyrrol-2-one]",≥ 5.30
5,"CC(=O)C1=C(O)C(=O)N(c2ccc(Br)cc2F)C1C1CCCCC1 (racemic) [Compound 142, 4-acetyl-1-(4-bromo-2-fluorophenyl)-5-cyclohexyl-3-hydroxy-1,5-dihydro-2H-pyrrol-2-one]",≥ 5.30
6,"C=C1CCC(C2C(C(C)=O)=C(O)C(=O)N2c2ccc(Cl)cc2)CC1 (racemic) [Compound 127, 4-acetyl-1-(4-chlorophenyl)-3-hydroxy-5-(4-methylenecyclohexyl)-1,5-dihydro-2H-pyrrol-2-one]",≥ 5.30
7,"CC(=O)C1=C(O)C(=O)N(c2ccc(Cl)c(C(F)(F)F)c2)C1C1CCCCC1 (racemic) [Compound 55, 4-acetyl-1-[4-chloro-3-(trifluoromethyl)phenyl]-5-cyclohexyl-3-hydroxy-1,5-dihydro-2H-pyrrol-2-one]",≥ 5.30
8,"CC(=O)C1=C(O)C(=O)N(c2ccc(Cl)cc2F)C1C1CCCC1 (racemic) [Compound 119, 4-acetyl-1-(4-chloro-2-fluorophenyl)-5-cyclopentyl-3-hydroxy-1,5-dihydro-2H-pyrrol-2-one]",≥ 5.30
9,"CC(=O)C1=C(O)C(=O)N(c2ccc(Cl)s2)C1C1CCCCC1 (racemic) [Compound 170, 4-acetyl-1-(5-chloro-2-thienyl)-5-cyclohexyl-3-hydroxy-1,5-dihydro-2H-pyrrol-2-one]",≥ 5.30
10,"CC(=O)C1=C(O)C(=O)N(c2c(F)cc(Cl)cc2F)[C@H]1C1CCCCC1 (stereo in doubt) [Compound 147, (S)-4-acetyl-1-(4-chloro-2,6-difluorophenyl)-5-cyclohexyl-3-hydroxy-1,5-dihydro-2H-pyrrol-2-one]",≥ 5.30
11,"CC(=O)C1=C(O)C(=O)N(c2ccc(C)cc2)C1C12CC3CC(CC(C3)C1)C2 (racemic) [Compound 58, 4-acetyl-5-(1-adamantyl)-3-hydroxy-1-(4-methylphenyl)-1,5-dihydro-2H-pyrrol-2-one]",≥ 5.30
12,"CC(=O)C1=C(O)C(=O)N(c2c(F)cc(Cl)cc2F)[C@@H]1C1CCCCC1 (stereo in doubt) [Compound 148, (R)-4-acetyl-1-(4-chloro-2,6-difluorophenyl)-5-cyclohexyl-3-hydroxy-1,5-dihydro-2H-pyrrol-2-one]",≥ 5.30
13,"CC(=O)C1=C(O)C(=O)N(c2ccc(Cl)cc2)C1C1CCC(C)CC1 (racemic) [Compound 150, 4-acetyl-1-(4-chlorophenyl)-3-hydroxy-5-(4-methylcyclohexyl)-1,5-dihydro-2H-pyrrol-2-one]",≥ 5.30
14,"CSC1=C(O)C(=O)N(c2ccc(Cl)cc2)C1C1CCCCC1 (racemic) [Compound 128, 1-(4-chlorophenyl)-5-cyclohexyl-3-hydroxy-4-(methylthio)-1,5-dihydro-2H-pyrrol-2-one]",≥ 5.30
15,"CCC(CC)C1C(C(C)=O)=C(O)C(=O)N1c1ccc(C)cc1 (racemic) [Compound 13, 4-acetyl-5-(1-ethylpropyl)-3-hydroxy-1-(4-methylphenyl)-1,5-dihydro-2H-pyrrol-2-one]",≥ 5.30
16,"CC(=O)C1=C(O)C(=O)N(c2ccc(Cl)cc2)C1C1CC(C)(C)CC(C)(C)C1 (racemic) [Compound 145, 4-acetyl-1-(4-chlorophenyl)-3-hydroxy-5-(3,3,5,5-tetramethylcyclohexyl)-1,5-dihydro-2H-pyrrol-2-one]",≥ 5.30

# Further lines, results first:
row,pIC50,SMILES
1,≥ 5.30,"CC(=O)C1=C(O)C(=O)N(c2ccc(F)cc2)C1C1CCCCC1 (racemic) [Compound 25, 4-acetyl-5-cyclohexyl-1-(4-fluorophenyl)-3-hydroxy-1,5-dihydro-2H-pyrrol-2-one]"
2,≥ 5.30,"CC(=O)C1=C(O)C(=O)N(c2ccc(Cl)c(N)c2)C1C1CCCCC1 (racemic) [Compound 71, 4-acetyl-1-(3-amino-4-chlorophenyl)-5-cyclohexyl-3 hydroxy-1,5-dihydro-2H-pyrrol-2-one]"
3,≥ 5.30,"CC(=O)C1=C(O)C(=O)N(c2ccc(Cl)c(Cl)c2)C1C1CCCCC1 (racemic) [Compound 48, 4-acetyl-5-cyclohexyl-1-(3,4-dichlorophenyl)-3-hydroxy-1,5-dihydro-2H-pyrrol-2-one]"
4,≥ 5.30,"CC(=O)C1=C(N)C(=O)N(c2ccc(C)cc2)C1C1CCCCC1 (racemic) [Compound 61, 4-acetyl-3-amino-5-cyclohexyl-1-(4-methylphenyl)-1,5-dihydro-2H-pyrrol-2-one]"
5,≥ 5.30,"CC(=O)C1=C(O)C(=O)N(c2ccc(Cl)cc2)C1C1CCCC1 (racemic) [Compound 118, 4-acetyl-1-(4-chlorophenyl)-5-cyclopentyl-3-hydroxy-1,5-dihydro-2H-pyrrol-2-one]"
6,≥ 5.30,"CC(=O)C1=C(O)C(=O)N(c2ccc(C)c(C)c2)C1C1CCCCC1 (racemic) [Compound 65, 4-acetyl-5-cyclohexyl-1-(3,4-dimethylphenyl)-3-hydroxy-1,5-dihydro-2H-pyrrol-2-one]"
7,≥ 5.30,"CC(=O)C1=C(O)C(=O)N(c2cccc(C)c2)C1C1CCCCC1 (racemic) [Compound 16, 4-acetyl-5-cyclohexyl-3-hydroxy-1-(3-methylphenyl)-1,5-dihydro-2H-pyrrol-2-one]"
8,≥ 5.30,"CC(=O)C1=C(O)C(=O)N(c2ccc(C)cc2)C1C1CCCCCC1 (racemic) [Compound 68, 4-acetyl-5-cycloheptyl-3-hydroxy-1-(4-methylphenyl)-1,5-dihydro-2H-pyrrol-2-one]"
9,≥ 5.30,"CC(=O)C1=C(O)C(=O)N(c2cccc(Cl)c2)C1C1CCCCC1 (racemic) [Compound 43, 4-acetyl-1-(3-chlorophenyl)-5-cyclohexyl-3-hydroxy-1,5-dihydro-2H-pyrrol-2-one]"
10,≥ 5.30,"Cc1ccc(N2C(=O)C(O)=C(C(N)=O)C2C2CCCCC2)cc1 (racemic) [Compound 131, 2-cyclohexyl-4-hydroxy-1-(4-methylphenyl)-5-oxo-2,5-dihydro-1H-pyrrole-3-carboxamide]"
11,≥ 5.30,"CCc1ccc(N2C(=O)C(O)=C(C(C)=O)C2C2CCCCC2)cc1 (racemic) [Compound 77, 4-acetyl-5-cyclohexyl-1-(4-ethylphenyl)-3-hydroxy-1,5-dihydro-2H-pyrrol-2-one]"
12,≥ 5.30,"CC(=O)C1=C(O)C(=O)N(c2ccc(C(F)(F)F)cc2)C1C1CCCCC1 (racemic) [Compound 49, 4-acetyl-5-cyclohexyl-3-hydroxy-1-[4-(trifluoromethyl)phenyl]-1,5-dihydro-2H-pyrrol-2-one]"
13,≥ 5.30,"CC(=O)C1=C(O)C(=O)N(c2ccc(F)cc2)[C@@H]1C1CCCC1 [Compound 137, (R)-4-acetyl-5-cyclopentyl-1-(4-fluorophenyl)-3-hydroxy-1,5-dihydro-2H-pyrrol-2-one]"
14,≥ 5.30,"CC(=O)C1=C(O)C(=O)N(c2ccc(C)cc2)C1C1CCCC1 (racemic) [Compound 56, 4-acetyl-5-cyclopentyl-3-hydroxy-1-(4-methylphenyl)-1,5-dihydro-2H-pyrrol-2-one]"
15,≥ 5.30,"CNC(=O)C1=C(O)C(=O)N(c2ccc(C)cc2)C1C1CCCCC1 (racemic) [Compound 126, 2-cyclohexyl-4-hydroxy-N-methyl-1-(4-methylphenyl)-5-oxo-2,5-dihydro-1H-pyrrole-3-carboxamide]"
16,≥ 5.30,"CC(=O)C1=C(O)C(=O)N(c2ccc(Br)cc2)C1C1CCCCC1 (racemic) [Compound 17, 4-acetyl-1-(4-bromophenyl)-5-cyclohexyl-3-hydroxy-1,5-dihydro-2H-pyrrol-2-one]"
17,≥ 5.30,"CC(=O)C1=C(O)C(=O)N(c2ccc(C)c(Cl)c2)C1C1CCCCC1 (racemic) [Compound 59, 4-acetyl-1-(3-chloro-4-methylphenyl)-5-cyclohexyl-3-hydroxy-1,5-dihydro-2H-pyrrol-2-one]"
18,≥ 5.30,"CC(=O)C1=C(O)C(=O)N(c2ccc(F)cc2F)C1C1CCCCC1 (racemic) [Compound 62, 4-acetyl-5-cyclohexyl-1-(2,4-difluorophenyl)-3-hydroxy-1,5-dihydro-2H-pyrrol-2-one]"
